Literature values, collected in patent US20030228369A1, “Process for conversion of high viscosity fluids and compositions thereof” (priority 2002, published 2003).

Details: pH about 1.2

solubility at pH of the stomach / gastric fluid: not soluble
Structure (SMILES): CC(C)=CCC1=C(O)[C@](O)(CC=C(C)C)C(=O)C(C(=O)CC(C)C)=C1O [humulon]
